Measurements taken from PubChem BioAssay AID296 (DTP/NCI, 2004).
Values joined by “and” are separate entries in the source; they are usually repeats but may differ in a detail not shown here. Identical values can stand only once. Inconclusive results are not listed.

System: MX-1 breast xenograft, nude mice, tumor weight T/C
Assay: NCI In Vivo Anticancer Drug Screen. Data for tumor model Human Mammary Carcinoma MX-1 Xenograft (intrarenal inoculation) in NU/NU Swiss (nude) mice
Settings: endpoint: mean tumor weight change, higher = larger tumour
How it was run: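 Mice carrying the implanted tumor receive either test agent or vehicle. Tumor size or survival is then recorded for both groups. Results are stated as the treated-to-control quotient.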

[1] = dose: 2.0 mg/kg/injection, schedule: Q01DX010 (sc), vehicle: saline
[2] = dose: 75.0 mg/kg/injection, schedule: Q04DX003 (sc), vehicle: saline
[3] = dose: 150.0 mg/kg/injection, schedule: Q04DX003 (sc), vehicle: saline
[4] = dose: 25.0 mg/kg/injection, schedule: Q01DX010 (sc), vehicle: Klucel (hydroxypropylcellulose) (HPC)
[5] = dose: 50.0 mg/kg/injection, schedule: Q01DX010 (sc), vehicle: Klucel (hydroxypropylcellulose) (HPC)

## COc1cccc2c1C(=O)c1c(O)c3c(c(O)c1C2=O)CC(O)(C(=O)CO)CC3OC1CC(N)C(O)C(C)O1 (stereo unspecified)
dose: 12.0 mg/kg/injection, schedule: Q01DX010 (sc), vehicle: saline
  T/C: 90 % of control
dose: 24.0 mg/kg/injection, schedule: Q01DX010 (sc), vehicle: saline
  T/C: 80 % of control
dose: 25.0 mg/kg/injection, schedule: Q01DX010 (sc), vehicle: saline
  T/C: 78 % of control
dose: 37.5 mg/kg/injection, schedule: Q01DX010 (sc), vehicle: water
  T/C: 281 % of control
dose: 48.0 mg/kg/injection, schedule: Q01DX010 (sc), vehicle: saline
  T/C: 9 % of control
dose: 50.0 mg/kg/injection, schedule: Q01DX010 (sc), vehicle: saline
  T/C: 22 % of control
dose: 75.0 mg/kg/injection, schedule: Q01DX010 (sc), vehicle: water
  T/C: 229 % of control
dose: 96.0 mg/kg/injection, schedule: Q01DX010 (sc), vehicle: saline
  T/C: 4 % of control
dose: 150.0 mg/kg/injection, schedule: Q01DX010 (sc), vehicle: water
  T/C: 233 % of control
dose: 300.0 mg/kg/injection, schedule: Q01DX010 (sc), vehicle: water
  T/C: 81 % of control

## COCC1OC2OC3C(COC)OC(OC4C(COC)OC(OC5C(COC)OC(OC6C(COC)OC(OC7C(COC)OC(OC8C(COC)OC(OC1C(O)C2O)C(O)C8O)C(O)C7O)C(O)C6O)C(O)C5O)C(O)C4O)C(O)C3O (stereo unspecified) (tested in a mixture with another compound)
dose: 100.0 mg/kg/injection, schedule: Q04DX003 (sc), vehicle: Klucel (hydroxypropylcellulose) (HPC)
  T/C: 82 % of control
dose: 200.0 mg/kg/injection, schedule: Q04DX003 (sc), vehicle: Klucel (hydroxypropylcellulose) (HPC)
  T/C: 96 % of control
dose: 400.0 mg/kg/injection, schedule: Q04DX003 (sc), vehicle: Klucel (hydroxypropylcellulose) (HPC)
  T/C: 86 % of control
dose: 800.0 mg/kg/injection, schedule: Q04DX003 (sc), vehicle: Klucel (hydroxypropylcellulose) (HPC)
  T/C: 76 % of control

## [N-]=[N+]=CC(=O)CCC(N)C(=O)O (stereo unspecified)
dose: 0.1 mg/kg/injection, schedule: Q01DX010 (sc), vehicle: saline
  T/C: -45 % of control
dose: 0.1 mg/kg/injection, schedule: Q02DX005 (sc), vehicle: saline
  T/C: 3 % of control
dose: 0.2 mg/kg/injection, schedule: Q01DX010 (sc), vehicle: saline
  T/C: -64 % of control
dose: 0.2 mg/kg/injection, schedule: Q02DX005 (sc), vehicle: saline
  T/C: -13 % of control
dose: 0.4 mg/kg/injection, schedule: Q01DX010 (sc), vehicle: saline
  T/C: -80 % of control
dose: 0.8 mg/kg/injection, schedule: Q02DX005 (sc), vehicle: saline
  T/C: -90 % of control
dose: 1.6 mg/kg/injection, schedule: Q02DX005 (sc), vehicle: saline
  T/C: -92 % of control
dose: 3.12 mg/kg/injection, schedule: Q04DX003 (sc), vehicle: DMSO
  T/C: 11 % of control
dose: 3.13 mg/kg/injection, schedule: Q04DX003 (sc), vehicle: saline
  T/C: 1 % of control
dose: 3.2 mg/kg/injection, schedule: Q02DX005 (sc), vehicle: saline
  T/C: -100 % of control
dose: 6.25 mg/kg/injection, schedule: Q04DX003 (sc), vehicle: DMSO
  T/C: 15 % of control
dose: 6.25 mg/kg/injection, schedule: Q04DX003 (sc), vehicle: saline
  T/C: 1 % of control
dose: 12.5 mg/kg/injection, schedule: Q04DX003 (sc), vehicle: DMSO
  T/C: 18 % of control
dose: 12.5 mg/kg/injection, schedule: Q04DX003 (sc), vehicle: saline
  T/C: 1 % of control
dose: 25.0 mg/kg/injection, schedule: Q04DX003 (sc), vehicle: DMSO
  T/C: 7 % of control
dose: 25.0 mg/kg/injection, schedule: Q04DX003 (sc), vehicle: saline
  T/C: -7 % of control

## O=c1cnn(C2OC(CO)C(O)C2O)c(=O)[nH]1 (stereo unspecified)
dose: 200.0 mg/kg/injection, schedule: Q01DX010 (sc), vehicle: saline
  T/C: 79 % of control
dose: 400.0 mg/kg/injection, schedule: Q01DX010 (sc), vehicle: saline
  T/C: 77 % of control

## Nc1nc([Se])c2ncn(C3OC(CO)C(O)C3O)c2n1 (stereo unspecified)
[1]
  T/C: 85 % of control and 101 % of control
dose: 6.66 mg/kg/injection, schedule: Q04DX003 (ip), vehicle: saline
  T/C: 76 % of control
dose: 6.66 mg/kg/injection, schedule: Q04DX003 (sc), vehicle: saline
  T/C: 72 % of control
dose: 8.0 mg/kg/injection, schedule: Q01DX010 (ip), vehicle: saline
  T/C: 45 % of control
dose: 13.33 mg/kg/injection, schedule: Q04DX003 (ip), vehicle: saline
  T/C: 46 % of control
dose: 26.65 mg/kg/injection, schedule: Q04DX003 (ip), vehicle: saline
  T/C: 74 % of control
dose: 53.3 mg/kg/injection, schedule: Q04DX003 (ip), vehicle: saline
  T/C: 63 % of control
dose: 53.33 mg/kg/injection, schedule: Q04DX003 (sc), vehicle: saline
  T/C: 89 % of control

## ClCCCN1CCN(CCCCl)CC1
dose: 75.0 mg/kg/injection, schedule: Q04DX003 (sc), vehicle: saline + alcohol
  T/C: 113 % of control
dose: 150.0 mg/kg/injection, schedule: Q04DX003 (sc), vehicle: saline + alcohol
  T/C: 28 % of control

## C1OCN2CSCC12 (stereo unspecified)
dose: 100.0 mg/kg/injection, schedule: Q04DX003 (sc), vehicle: saline with Tween-80
  T/C: 94 % of control
dose: 200.0 mg/kg/injection, schedule: Q04DX003 (sc), vehicle: saline with Tween-80
  T/C: 158 % of control
dose: 400.0 mg/kg/injection, schedule: Q04DX003 (sc), vehicle: saline with Tween-80
  T/C: 80 % of control

## CC[C@H]1CN2CCc3cc(OC)c(OC)cc3[C@@H]2C[C@@H]1C[C@H]1NCCc2cc(OC)c(OC)cc21
[1]
  T/C: 114 % of control
dose: 4.0 mg/kg/injection, schedule: Q01DX010 (sc), vehicle: saline
  T/C: 108 % of control

## COc1cc2c(c(OC)c1OC)-c1c(cc3c(c1OC)OCO3)CC(C)C(C)(O)C2OC(=O)c1ccccc1 (stereo unspecified)
dose: 300.0 mg/kg/injection, schedule: Q04DX003 (sc), vehicle: saline + alcohol
  T/C: 68 % of control
dose: 600.0 mg/kg/injection, schedule: Q04DX003 (sc), vehicle: saline + alcohol
  T/C: 82 % of control
dose: 1200.0 mg/kg/injection, schedule: Q04DX003 (sc), vehicle: saline + alcohol
  T/C: 79 % of control
dose: 2400.0 mg/kg/injection, schedule: Q04DX003 (sc), vehicle: saline + alcohol
  T/C: 88 % of control

## N=c1c(C(=O)OCc2ccccc2)ncc(CCl)n1O
dose: 600.0 mg/kg/injection, schedule: Q04DX003 (sc), vehicle: saline with Tween-80
  T/C: 89 % of control
dose: 2400.0 mg/kg/injection, schedule: Q04DX003 (sc), vehicle: saline with Tween-80
  T/C: 72 % of control

## CCC(C(=O)O)C(=O)O.[NH2-].[NH2-].[Pt+2]
[2]
  T/C: -95 % of control
[3]
  T/C: -82 % of control
dose: 300.0 mg/kg/injection, schedule: Q04DX003 (sc), vehicle: saline
  T/C: -99 % of control

## COc1cc(NCCCCCCCNC(C)C)c2nccc(C)c2c1
dose: 37.5 mg/kg/injection, schedule: Q04DX003 (sc), vehicle: saline
  T/C: 93 % of control
[2]
  T/C: 76 % of control
[3]
  T/C: 66 % of control

## CC(=O)C1(O)Cc2c(O)c3c(c(O)c2C(OC2CC(N)C(O)C(C)O2)C1)C(=O)c1ccccc1C3=O (stereo unspecified)
dose: 0.5 mg/kg/injection, schedule: Q04DX003 (sc), vehicle: water
  T/C: 104 % of control
dose: 1.0 mg/kg/injection, schedule: Q04DX003 (sc), vehicle: water
  T/C: 100 % of control

## Cc1c2ccccc2cc2cccc[n+]12
dose: 7.5 mg/kg/injection, schedule: Q04DX003 (sc), vehicle: saline
  T/C: 74 % of control
dose: 15.0 mg/kg/injection, schedule: Q04DX003 (sc), vehicle: saline
  T/C: 88 % of control
dose: 30.0 mg/kg/injection, schedule: Q04DX003 (sc), vehicle: saline
  T/C: 67 % of control

## Cn1cnc([N+](=O)[O-])c1S(=O)(=O)NCN1CCOCC1
[4]
  T/C: 94 % of control
[5]
  T/C: 76 % of control
dose: 100.0 mg/kg/injection, schedule: Q01DX010 (sc), vehicle: Klucel (hydroxypropylcellulose) (HPC)
  T/C: 94 % of control
dose: 200.0 mg/kg/injection, schedule: Q01DX010 (sc), vehicle: Klucel (hydroxypropylcellulose) (HPC)
  T/C: 78 % of control

## Cc1ccc(S(=O)(=O)N/N=C/C(=O)O)cc1
[4]
  T/C: 90 % of control
[5]
  T/C: 103 % of control
dose: 400.0 mg/kg/injection, schedule: Q01DX010 (sc), vehicle: Klucel (hydroxypropylcellulose) (HPC)
  T/C: 58 % of control
dose: 800.0 mg/kg/injection, schedule: Q01DX010 (sc), vehicle: Klucel (hydroxypropylcellulose) (HPC)
  T/C: 71 % of control

## NC(C(=O)O)c1ccc(CBr)cc1 (stereo unspecified)
dose: 200.0 mg/kg/injection, schedule: Q04DX003 (sc), vehicle: acid diluted with saline
  T/C: 61 % of control
dose: 400.0 mg/kg/injection, schedule: Q04DX003 (sc), vehicle: acid diluted with saline
  T/C: 92 % of control
dose: 800.0 mg/kg/injection, schedule: Q04DX003 (sc), vehicle: acid diluted with saline
  T/C: 73 % of control
dose: 1600.0 mg/kg/injection, schedule: Q04DX003 (sc), vehicle: acid diluted with saline
  T/C: 106 % of control
